# Where two headings read alike, the source gives them in different places.
# Legend:
# E. coli GC 2236 = assay: MIC, broth microdilution; conditions: Escherichia coli
# E. coli GC 2235 = assay: MIC, broth microdilution; conditions: Escherichia coli
# E. coli GC 2233 = assay: MIC, broth microdilution; conditions: Escherichia coli
# Experimental: (§1) Antimicrobial susceptibility testing. The in vitro activities of the antibiotics are determined by the broth microdilution method as recommended by the National Committee for Clinical Laboratory Standards (NCCLS) (1). Mueller-Hinton II broth (MHBII)(BBL Cockeysville, Md.) is the medium employed in the testing procedures. Microtiter plates containing serial dilutions of each antimicrobial agent are inoculated with each organism to yield the appropriate density (10^5 CFU/ml) in a 100 μl final volume. The plates are incubated for 18-22 hours at 35° C. in ambient air.
# Representative compounds were first incubated in mouse serum for an hour prior to the in vitro testing against a panel of selected gram-positive and gram-negative bacteria strains. All compounds were also pre-incubated in water for an hour prior to testing as control.
# E. coli GC 2270 = assay: MIC, broth microdilution; conditions: Escherichia coli
# Experimental: as §1
# Representative compounds were first incubated in mouse serum for an hour prior to the in vitro testing against a panel of selected gram-positive and gram-negative bacteria strains. All compounds were also pre-incubated in water for an hour prior to testing as control. Representative compounds of Formula I were incubated in human serum prior to MIC determination.
# E. coli GC 2271 = assay: MIC, broth microdilution; conditions: Escherichia coli
# E. coli GC 4559 = assay: MIC, broth microdilution; conditions: Escherichia coli
# E. coli GC 4560 = assay: MIC, broth microdilution; conditions: Escherichia coli
# E. coli GC 6465 = assay: MIC, broth microdilution; conditions: Escherichia coli
# E. coli GC 2203 = assay: MIC, broth microdilution; conditions: Escherichia coli
# E. coli GC 1073 = assay: MIC, broth microdilution; conditions: Escherichia coli
# P. aeruginosa GC 2214 = assay: MIC, broth microdilution; conditions: Pseudomonas aeruginosa
# S. aureus GC 6467 = assay: MIC, broth microdilution; conditions: Staphylococcus aureus
# S. aureus GC 4536 = assay: MIC, broth microdilution; conditions: Staphylococcus aureus
# S. aureus GC 6469 = assay: MIC, broth microdilution; conditions: Staphylococcus aureus
# E. faecalis GC 4555 = assay: MIC, broth microdilution; conditions: Enterococcus faecalis
# E. faecalis GC 2265 = assay: MIC, broth microdilution; conditions: Enterococcus faecalis
# E. faecalis GC 2242 = assay: MIC, broth microdilution; conditions: Enterococcus faecalis
# S. agalactiae GC 4564 = assay: MIC, broth microdilution; conditions: Streptococcus agalactiae
# E. coli = assay: Range of MIC for E. coli strains; conditions: Escherichia coli
# Staph. = assay: Range of MIC for Staph. strains, including MRSA; conditions: Staphylococcus aureus, MRSA
smiles,measurement,setting,value
"CCCN(CC(=O)Nc1cc(N(C)C)c2c(c1O)C(=O)C1=C(O)[C@]3(O)C(=O)C(C(N)=O)=C(O)[C@@H](N(C)C)[C@@H]3C[C@@H]1C2)C(=O)OCOC(=O)c1cc(C)cc(C)c1 [Example 26, ({[(2-{[(5aR,6aS,7S,10aS)-9-(aminocarbonyl)-4,7-bis(dimethylamino)-1,8,10a,11-tetrahydroxy-10,12-dioxo-5,5a,6,6a,7,10,10a,12-octahydrotetracen-2-yl]amino}-2-oxoethyl)(propyl)amino]carbonyl}oxy)methyl 3,5-dimethylbenzoate]",MIC,"E. coli GC 2236; GC2236, read-out: MINIMAL INHIBITORY CONCENTRATION MIC, pre-incubated in Mouse Serum",2 µg/mL
same,MIC,"E. coli GC 2236; GC2236, read-out: MINIMAL INHIBITORY CONCENTRATION MIC, pre-incubated in Water",> 64 µg/mL
same,MIC,"E. coli GC 2235; GC2235, read-out: MINIMAL INHIBITORY CONCENTRATION MIC, pre-incubated in Mouse Serum",1 µg/mL
same,MIC,"E. coli GC 2235; GC2235, read-out: MINIMAL INHIBITORY CONCENTRATION MIC, pre-incubated in Water",64 µg/mL
same,MIC,"E. coli GC 2233; GC2233, read-out: MINIMAL INHIBITORY CONCENTRATION MIC, pre-incubated in Mouse Serum",2 µg/mL
same,MIC,"E. coli GC 2233; GC2233, read-out: MINIMAL INHIBITORY CONCENTRATION MIC, pre-incubated in Water",> 64 µg/mL
same,MIC,"E. coli GC 2270; GC2270, read-out: MINIMAL INHIBITORY CONCENTRATION MIC, pre-incubated in Mouse Serum",1 µg/mL
same,MIC,"E. coli GC 2270; GC2270, read-out: MINIMAL INHIBITORY CONCENTRATION MIC, pre-incubated in Water",> 64 µg/mL
same,MIC,"E. coli GC 2271; GC2271, read-out: MINIMAL INHIBITORY CONCENTRATION MIC, pre-incubated in Mouse Serum",1 µg/mL
same,MIC,"E. coli GC 2271; GC2271, read-out: MINIMAL INHIBITORY CONCENTRATION MIC, pre-incubated in Water",> 64 µg/mL
same,MIC,"E. coli GC 4559; GC4559, read-out: MINIMAL INHIBITORY CONCENTRATION MIC, pre-incubated in Mouse Serum",2 µg/mL
same,MIC,"E. coli GC 4559; GC4559, read-out: MINIMAL INHIBITORY CONCENTRATION MIC, pre-incubated in Water",> 64 µg/mL
same,MIC,"E. coli GC 4560; GC4560, read-out: MINIMAL INHIBITORY CONCENTRATION MIC, pre-incubated in Mouse Serum",0.5 µg/mL
same,MIC,"E. coli GC 4560; GC4560, read-out: MINIMAL INHIBITORY CONCENTRATION MIC, pre-incubated in Water",8 µg/mL
same,MIC,"E. coli GC 6465; GC6465, read-out: MINIMAL INHIBITORY CONCENTRATION MIC, pre-incubated in Mouse Serum",8 µg/mL
same,MIC,"E. coli GC 6465; GC6465, read-out: MINIMAL INHIBITORY CONCENTRATION MIC, pre-incubated in Water",> 64 µg/mL
same,MIC,"E. coli GC 2203; GC2203, read-out: MINIMAL INHIBITORY CONCENTRATION MIC, pre-incubated in Mouse Serum",1 µg/mL
same,MIC,"E. coli GC 2203; GC2203, read-out: MINIMAL INHIBITORY CONCENTRATION MIC, pre-incubated in Water",> 64 µg/mL
same,MIC,"E. coli GC 1073; GC1073, read-out: MINIMAL INHIBITORY CONCENTRATION MIC, pre-incubated in Mouse Serum",2 µg/mL
same,MIC,"E. coli GC 1073; GC1073, read-out: MINIMAL INHIBITORY CONCENTRATION MIC, pre-incubated in Water",> 64 µg/mL
same,MIC,"P. aeruginosa GC 2214; GC2214, read-out: MINIMAL INHIBITORY CONCENTRATION MIC, pre-incubated in Mouse Serum",32 µg/mL
same,MIC,"P. aeruginosa GC 2214; GC2214, read-out: MINIMAL INHIBITORY CONCENTRATION MIC, pre-incubated in Water",> 64 µg/mL
same,MIC,"S. aureus GC 6467; GC6467, read-out: MINIMAL INHIBITORY CONCENTRATION MIC, pre-incubated in Mouse Serum",1 µg/mL
same,MIC,"S. aureus GC 6467; GC6467, read-out: MINIMAL INHIBITORY CONCENTRATION MIC, pre-incubated in Water",4 µg/mL
same,MIC,"S. aureus GC 4536; GC4536, read-out: MINIMAL INHIBITORY CONCENTRATION MIC, pre-incubated in Mouse Serum",0.25 µg/mL
same,MIC,"S. aureus GC 4536; GC4536, read-out: MINIMAL INHIBITORY CONCENTRATION MIC, pre-incubated in Water",0.5 µg/mL
same,MIC,"S. aureus GC 6469; GC6469, read-out: MINIMAL INHIBITORY CONCENTRATION MIC, pre-incubated in Mouse Serum",1 µg/mL
same,MIC,"S. aureus GC 6469; GC6469, read-out: MINIMAL INHIBITORY CONCENTRATION MIC, pre-incubated in Water",2 µg/mL
same,MIC,"E. faecalis GC 4555; GC4555, read-out: MINIMAL INHIBITORY CONCENTRATION MIC, pre-incubated in Mouse Serum",1 µg/mL
same,MIC,"E. faecalis GC 4555; GC4555, read-out: MINIMAL INHIBITORY CONCENTRATION MIC, pre-incubated in Water",4 µg/mL
same,MIC,"E. faecalis GC 2265; GC2265, read-out: MINIMAL INHIBITORY CONCENTRATION MIC, pre-incubated in Mouse Serum",2 µg/mL
same,MIC,"E. faecalis GC 2265; GC2265, read-out: MINIMAL INHIBITORY CONCENTRATION MIC, pre-incubated in Water",8 µg/mL
same,MIC,"E. faecalis GC 2242; GC2242, read-out: MINIMAL INHIBITORY CONCENTRATION MIC, pre-incubated in Mouse Serum",2 µg/mL
same,MIC,"E. faecalis GC 2242; GC2242, read-out: MINIMAL INHIBITORY CONCENTRATION MIC, pre-incubated in Water",4 µg/mL
same,MIC,"S. agalactiae GC 4564; GC4564, read-out: MINIMAL INHIBITORY CONCENTRATION MIC, pre-incubated in Mouse Serum",1 µg/mL
same,MIC,"S. agalactiae GC 4564; GC4564, read-out: MINIMAL INHIBITORY CONCENTRATION MIC, pre-incubated in Water",2 µg/mL
same,MIC,"E. coli; 20 h, read-out: Range of MIC, E. coli (Mouse Serum)",1 to 4 µg/mL
same,MIC,"E. coli; read-out: Range of MIC, E. coli (mouse serum)",1 to 4 µg/mL
same,MIC,"Staph.; read-out: Range of MIC, Staph (Mouse Serum)",0.25 to 1 µg/mL
same,MIC,"Staph.; read-out: Range of MIC, Staph (Water)",0.25 to 4 µg/mL
same,MIC,"Staph.; read-out: Range of MIC, Staph. (mouse serum)",0.25 to 1 µg/mL
same,MIC,"Staph.; read-out: Range of MIC, Staph. (water)",0.25 to 4 µg/mL

# Reference: US20070049564A1 (Wyeth, priority 2005, published 2007)
